PMC8881573, “Inhibition of SRP-dependent protein secretion by the bacterial alarmone (p)ppGpp” (Nature Communications, 2022)
“And” between values parts separate entries of the source, which are not always exact repeats. Identical values can stand only once.

Legend:
(Ec)Ffh-NG [1] = molecular target: T1, (Ec)Ffh-NG (Escherichia coli, UniProt P0AGD7); assay: Isothermal titration calorimetry (ITC) of nucleotide binding; design: species or system E. coli
T1 construct: purified NG domains of (Ec)Ffh, (Ec)FtsY and (Bs)Ffh; His6 (C); made in house; host or cells: E. coli BL21 (DE3)
Description: (§1) Ligands and proteins (purified NG domains of (Ec)Ffh, (Ec)FtsY and (Bs)Ffh) were diluted with a buffer containing 20 mM HEPES-Na (pH 7.5), 200 mM NaCl, 20 mM MgCl2 and 20 mM KCl. The NG domains of (Ec)Ffh, (Ec)FtsY and (Bs)Ffh were titrated in the sample-cell at a nominal concentration of 25 µM each. The nucleotides GDP, GTP, ppGpp and pppGpp (Jena Bioscience, Germany) were placed in the syringe and their concentrations were predetermined by absorbance at 252 nm to saturate the protein samples during the titrations. All the measurements were performed at 25 °C with the instrument MicroCal PEAQ-ITC (©Malvern Panalytical) with a method consisting of 13 injections (first 0.4 µL, and the rest 3 µL each) and 150 s of spacing. The raw data (see source) were processed with the MicroCal PEAQ-ITC Analysis Software (©Malvern Panalytical) using the “one set of sites” models.

(Ec)FtsY-NG [2] = molecular target: T2, (Ec)FtsY-NG (Escherichia coli, UniProt P10121); assay: as above; design: species or system E. coli; conditions: NG domain, 25 °C, one set of sites model
T2 construct: purified NG domains of (Ec)Ffh, (Ec)FtsY and (Bs)Ffh; His6 (C); made in house; host or cells: E. coli BL21 (DE3)
Description: as §1

(Bs)Ffh-NG [3] = molecular target: T3, (Bs)Ffh-NG (Bacillus subtilis, UniProt P37105); assay: as above; design: species or system B. subtilis; conditions: NG domain, 25 °C, one set of sites model
T3 construct: purified NG domains of (Ec)Ffh, (Ec)FtsY and (Bs)Ffh; His6 (N); made in house; host or cells: E. coli Rosetta pLysS
T3 sequence (P37105 1-297 limits assumed): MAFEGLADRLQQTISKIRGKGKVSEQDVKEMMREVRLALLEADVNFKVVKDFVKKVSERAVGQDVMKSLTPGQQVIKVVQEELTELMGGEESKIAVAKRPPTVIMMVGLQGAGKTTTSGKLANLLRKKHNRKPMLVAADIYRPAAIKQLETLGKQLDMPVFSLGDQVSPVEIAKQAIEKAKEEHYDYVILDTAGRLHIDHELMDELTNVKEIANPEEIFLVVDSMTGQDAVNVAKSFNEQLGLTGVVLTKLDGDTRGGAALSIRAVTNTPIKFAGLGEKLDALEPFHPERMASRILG
Description: as §1

(Ec)Ffh-NG [4] = molecular target: T1, (Ec)Ffh-NG; assay: Microscale thermophoresis (MST) ligand binding; design: species or system E. coli; conditions: NG domain labeled with NT 647, 21 °C
Description: (§2) Ligand binding assays with purified NG domains of (Ec)Ffh, (Ec)FtsY and (Bs)Ffh proteins were carried out by microscale thermophoresis (MST)[80]. All experiments were performed on a Monolith NT.115 (NanoTemper Technologies GmbH, Munich, Germany; software: NanoTemper Control Version 2.0.2.29) at 21 °C (red LED power was set to 50–100% and infrared laser power to 75%). After labeling of primary amines within (Ec)Ffh, (Ec)FtsY, and (Bs)Ffh (50 µM each) with the dye NT 647 (according to the manufacturers protocol), the proteins were re-buffered in SEC buffer containing 20 mM HEPES-Na, 20 mM KCl, 20 mM MgCl2, 200 mM NaCl (final pH 7.5), 10 mg ml^−1 BSA and 0.007% Tween. Two-hundred nanomolar of (Ec)Ffh, (Ec)FtsY, and (Bs)Ffh were titrated with GDP, GTP, ppGpp, and pppGpp starting from a concentration ranging between 0.75 and 3 mM, respectively. At least six independent MST experiments per ligand and protein were recorded at 680 nm and analyzed using NanoTemper Analysis version 1.5.37 and 1.2.009, and Origin8G software suits.

(Ec)FtsY-NG [5] = molecular target: T2, (Ec)FtsY-NG; assay: Microscale thermophoresis (MST) ligand binding; design: species or system E. coli; conditions: NG domain labeled with NT 647, 21 °C
Description: as §2

(Bs)Ffh-NG [6] = molecular target: T3, (Bs)Ffh-NG; assay: Microscale thermophoresis (MST) ligand binding; design: species or system B. subtilis; conditions: NG domain labeled with NT 647, 21 °C
Description: as §2

T2 sequence (P10121 197-497): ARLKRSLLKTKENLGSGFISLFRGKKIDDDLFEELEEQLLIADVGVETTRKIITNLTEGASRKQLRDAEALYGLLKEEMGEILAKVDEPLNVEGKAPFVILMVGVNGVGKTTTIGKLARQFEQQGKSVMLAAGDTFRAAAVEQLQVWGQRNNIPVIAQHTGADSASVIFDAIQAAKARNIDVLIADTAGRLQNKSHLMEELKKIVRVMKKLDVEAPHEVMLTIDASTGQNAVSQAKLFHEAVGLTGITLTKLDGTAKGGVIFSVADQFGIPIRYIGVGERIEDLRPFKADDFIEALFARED
T1 sequence (P0AGD7 1-296): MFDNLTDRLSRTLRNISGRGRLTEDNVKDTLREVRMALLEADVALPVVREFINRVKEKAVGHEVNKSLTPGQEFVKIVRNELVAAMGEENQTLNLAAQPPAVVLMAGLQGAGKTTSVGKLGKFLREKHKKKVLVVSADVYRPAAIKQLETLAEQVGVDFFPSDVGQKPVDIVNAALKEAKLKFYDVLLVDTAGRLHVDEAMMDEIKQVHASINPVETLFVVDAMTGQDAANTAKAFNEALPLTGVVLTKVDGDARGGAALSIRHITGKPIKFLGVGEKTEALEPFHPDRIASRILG

Row | Structure (SMILES) | Kd ((Ec)Ffh-NG [1]) [µM] | Kd ((Ec)FtsY-NG [2]) [µM] | Kd ((Bs)Ffh-NG [3]) [µM] | Kd ((Ec)Ffh-NG [4]) | Kd ((Ec)FtsY-NG [5]; read-out: (Ec)FtsY KD MST) | Kd ((Bs)Ffh-NG [6]) [µM] | Kd ((Ec)FtsY-NG [5]; (Ec)FtsY KD MST) [µM]
1 | Nc1nc2c(ncn2[C@@H]2O[C@H](COP(=O)(O)OP(=O)(O)O)[C@@H](O)[C@H]2O)c(=O)[nH]1 [GDP] | 2.2 ± 0.6 | 9.8 ± 1.1 | 1.2 ± 0.7 | 7.9 µM and 7.94 µM | 9.6 µM and 9.63 µM | 9.23 ± 0.99 | 
2 | Nc1nc2c(ncn2[C@@H]2O[C@H](COP(=O)(O)OP(=O)(O)OP(=O)(O)O)[C@@H](O)[C@H]2O)c(=O)[nH]1 [GTP] | 0.7 ± 0.5 |  | 0.6 ± 0.5 | 62.3 µM |  | 30.3 | 63.8
